One may read the IC50 as the midpoint of a concentration-inhibition curve.

This assay has as its target TRIP8b-HCN1c40 (Homo sapiens (Human), UniProt Q8IYB4). As to the kind of experiment: TRIP8b-HCN1c40 AlphaScreen assay. In kind it is binding. As to the method:
AlphaScreen Assay. 20 nM ofGST-tagged HCNlc40 protein (corresponding to the C terminal 40 amino acids of HCN1) was incubated with 200 nM of His-tagged TRIP8b(241-602) and varying concentrations of the test compound as described in our prior report (Han et al., 2015). After a 3 h incubation, anti-GST AlphaScreen acceptor beads were added for 1.5 h followed by AlphaScreen nickel chelate donor beads for 1.5 h. AlphaScreen signal was quantified using a PerkinElmer (Waltham, MA) EnSpire multimode plate reader.

The mark [1] stands for this setting: activity ranges, read-out: TRIP8b-HCN1c40 Alphascreen IC50 activity.
[2] abbreviates: read-out: TRIP8b-HCN1c40 Alphascreen IC50.

Like-named read-outs stand apart in the source and are kept apart here.

Chain of TRIP8b-HCN1c40 (Q8IYB4 265-626): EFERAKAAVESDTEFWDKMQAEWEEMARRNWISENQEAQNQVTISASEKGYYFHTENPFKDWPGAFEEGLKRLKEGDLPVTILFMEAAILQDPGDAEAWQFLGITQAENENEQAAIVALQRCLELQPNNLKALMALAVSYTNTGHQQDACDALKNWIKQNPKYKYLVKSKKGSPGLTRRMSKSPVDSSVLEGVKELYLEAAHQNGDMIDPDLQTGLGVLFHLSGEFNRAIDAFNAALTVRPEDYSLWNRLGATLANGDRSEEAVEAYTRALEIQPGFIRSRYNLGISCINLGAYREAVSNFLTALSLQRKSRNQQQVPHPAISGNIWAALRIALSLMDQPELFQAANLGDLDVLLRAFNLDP

`CN1CCN(Cc2cc(-c3cc(C(F)(F)F)cnc3Cl)ccc2OCC(=O)Nc2ccc(Cl)c(Cl)c2)CC1` [NUCC-0202007]: the IC50 is, setting by setting: under setting [1], 2 to 5 µM; under setting [2], 4.6 µM. As to `CN1CCN(Cc2cc(-c3ccc(Cl)c(Cl)c3)ccc2OCC(=O)N2CCc3cc(Cl)c(Cl)cc32)CC1` [NUCC-0201991], the IC50 by setting is: under setting [1], less than 1 µM; under setting [2], less than 0.74 µM.

With `CN1CCN(Cc2cc(-c3ccc(F)cc3)ccc2OCC(=O)NCc2ccc(C(F)(F)F)cc2)CC1` [NUCC-0201103], the IC50 runs as follows: under setting [1], 10 to 20 µM; under setting [2], 15 µM. With `CN1CCN(Cc2cc(-c3ccc(CO)cc3)ccc2OCC(=O)Nc2ccc(Cl)c(Cl)c2)CC1` [NUCC-0202024], the IC50 by setting is: under setting [1], 2 to 5 µM; under setting [2], 3.2 µM.

Turning to `Cc1cccc(-c2ccc(OCC(=O)Nc3ccc(O)cc3)c(CN3CC[C@H](N)C3)c2)c1` [NUCC-0201624], the IC50 is, setting by setting: under setting [1], 10 to 20 µM; under setting [2], 20 µM.

In the case of `COc1ncc(-c2ccc(OCC(=O)NCc3ccc(Cl)cc3)c(CN3CCN(C)CC3)c2)c(OC)n1` [NUCC-0201189], under setting [2], the IC50 is 92 µM. Turning to `CN1CCN(Cc2cc(-c3ccc(Cl)c(Cl)c3)ccc2OCC(=O)NCc2ccc(C#N)cc2)CC1` [NUCC-0201984], the IC50 under setting [2] stood at 5.3 µM.

On to `CN1CCN(Cc2cc(-c3ccc(Cl)c(C(F)(F)F)c3)ccc2OCC(=O)Nc2ccc(Cl)c(Cl)c2)CC1` [NUCC-0202023], for which the IC50 runs as follows: under setting [1], 1 to 2 µM; under setting [2], 1.3 µM. Regarding `COc1cc(NC(=O)COc2ccc(-c3cccc(C)c3)cc2CN2CC[C@H](N)C2)cc(OC)c1OC` [NUCC-0201620], the IC50 under setting [1] lay within 10 to 20 µM and the IC50 under setting [2] stood at 13 µM.

`CC(Oc1ccc(-c2ccc(F)c(C(F)(F)F)c2)cc1CN1CCN(C)CC1)C(=O)NCc1ccc(Cl)cc1` (stereo not drawn) [NUCC-0202033]: the IC50 under setting [1] was less than 1 µM and the IC50 under setting [2] turned out to be 0.99 µM. Turning to `Cc1ccc(-c2ccc(OCC(=O)NCc3ccc(F)cc3)c(CN3CCC(N(C)C)CC3)c2)cc1` [NUCC-0201609], the IC50 by setting is: under setting [1], 10 to 20 µM; under setting [2], 16 µM. `CN1CCN(Cc2cc(-c3ccc(Cl)c(Cl)c3)ccc2OCC(=O)NCCc2ccc(C(F)(F)F)cc2)CC1` [NUCC-0201995]: the IC50 reads like this: under setting [1], less than 1 µM; under setting [2], less than 0.74 µM. Turning to `CN1CCN(Cc2ccc(-c3ccc(F)c(C(F)(F)F)c3)cc2OCC(=O)NCc2ccc(Cl)cc2)CC1` [NUCC-0202013], the IC50 under setting [1] lay in the range of 1 to 2 µM and the IC50 under setting [2] came to 1.4 µM.

Consider `CCN(CC)C(=O)COc1ccc(-c2ccc(F)cc2)cc1CN1CCN(C)CC1` [NUCC-0201100], for which the IC50 under setting [2] came to 150 µM. Regarding `CN1CCN(Cc2cc(-c3ccc(Cl)c(Cl)c3)ccc2OCC(=O)NCc2ccc(Cl)cc2)CC1` [NUCC-0201973], the IC50 was 1 to 2 µM under setting [1] and 1.3 µM under setting [2].

Take `CN1CCN(Cc2cc(-c3ccc(CCl)cc3)ccc2OCC(=O)NCc2ccc(Cl)c(Cl)c2)CC1` [NUCC-0201971]: the IC50 under setting [1] was 5 to 10 µM and the 50% inhibitory concentration (IC50) under setting [2] was found to be 6.6 µM. `Cc1ccc(-c2ccc(OCC(=O)NCc3ccc(S(N)(=O)=O)cc3)c(CN3CCCN(C)CC3)c2)cc1` [NUCC-0201597]: the IC50 under setting [2] is greater than 40 µM.

`CN1CCN(Cc2cc(-c3ccc(C(F)(F)F)cc3)ccc2OCC(=O)NCc2ccc(Cl)cc2)CC1` [NUCC-0201711]: the IC50 is, setting by setting: under setting [1], 2 to 5 µM; under setting [2], 3.9 µM.

On to `CN1CCN(Cc2cc(-c3ccccc3Cl)ccc2OCC(=O)Nc2ccc(Cl)c(Cl)c2)CC1` [NUCC-0201997], for which the IC50 is less than 1 µM under setting [1] and less than 0.74 µM under setting [2]. Consider `CN1CCN(Cc2cc(-c3ccc(Cl)c(Cl)c3)ccc2OCC(=O)Nc2ccc(Cl)cc2)CC1` [NUCC-0202016], for which the IC50 is, setting by setting: under setting [1], less than 1 µM; under setting [2], 0.78 µM. With `CN1CCN(Cc2cc(-c3cccnc3)ccc2OCC(=O)Nc2ccc(Cl)c(Cl)c2)CC1` [NUCC-0202005], the IC50 is 5 to 10 µM under setting [1] and 5.5 µM under setting [2].

Turning to `Cc1cccc(-c2ccc(OCC(=O)NCc3ccc(Cl)cc3)c(CN3CC[C@H](N)C3)c2)c1` [NUCC-0201625], the IC50 is, setting by setting: under setting [1], 5 to 10 µM; under setting [2], 6.1 µM. For the compound `CN1CCN(Cc2cc(OC(F)(F)F)ccc2OCC(=O)NCc2ccc(Cl)cc2)CC1` [NUCC-0201228], the IC50 under setting [2] worked out at 160 µM. Consider `CN1CCN(Cc2cc(-c3ccc(Cl)cc3Cl)ccc2OCC(=O)NCc2ccc(Cl)cc2)CC1` [NUCC-0202054], for which the IC50 by setting is: under setting [1], less than 1 µM; under setting [2], less than 0.74 µM. Take `Cc1ccc(-c2ccc(CN3CCN(C)CC3)c(OCC(=O)NCc3ccc(Cl)cc3)c2)cc1` [NUCC-0202011]: the IC50 is 1 to 2 µM under setting [1] and 1.5 µM under setting [2].

On to `CN1CCN(Cc2cc(-c3ccc(N)cc3)ccc2OCC(=O)Nc2ccc(Cl)c(Cl)c2)CC1` [NUCC-0202020], for which the IC50 is, setting by setting: under setting [1], 1 to 2 µM; under setting [2], 1.5 µM. For the compound `CN1CCN(Cc2cc(-c3ccc(Cl)c(Cl)c3)ccc2OCC(=O)N2CCc3ccccc32)CC1` [NUCC-0201980], the half-maximal inhibitory concentration (IC50) under setting [1] was 1 to 2 µM and the IC50 under setting [2] was determined as 1.2 µM. Regarding `CN1CCN(Cc2cc(-c3cc(Cl)cc(Cl)c3)ccc2OCC(=O)NCc2ccc(Cl)c(Cl)c2)CC1` [NUCC-0201979], the IC50 is, setting by setting: under setting [1], less than 1 µM; under setting [2], less than 0.74 µM. In the case of `CN1CCN(Cc2cc(-c3ccncc3)ccc2OCC(=O)Nc2ccc(Cl)c(Cl)c2)CC1` [NUCC-0202006], the IC50 under setting [1] lay within 5 to 10 µM and the IC50 under setting [2] was found to be 5.3 µM. Regarding `Cc1ccc(NC(=O)COc2ccc(-c3cccc(C)c3)cc2CN2CC[C@H](N)C2)cc1` [NUCC-0201618], the IC50 is 5 to 10 µM under setting [1] and 8.8 µM under setting [2]. In the case of `Cc1ccc([C@@H](C)NC(=O)C(C)Oc2ccc(-c3cc(Cl)cc(Cl)c3)cc2CN2CCN(C)CC2)cc1` (stereo partly drawn) [NUCC-0202049], the IC50 under setting [1] was less than 1 µM and the IC50 under setting [2] was less than 0.74 µM.

As for `CN1CCN(Cc2cc(-c3ccc(Cl)cc3)ccc2OCCNS(=O)(=O)c2ccc(Cl)cc2)CC1` [NUCC-0201974], the IC50 by setting is: under setting [1], 1 to 2 µM; under setting [2], 1.8 µM. `Cc1ccc(-c2ccc(OCC(=O)NCc3ccccc3)c(CN3CCCN(C)CC3)c2)cc1` [NUCC-0201598]: the IC50 is, setting by setting: under setting [1], 10 to 20 µM; under setting [2], 20 µM. For `CN1CCN(Cc2cc(-c3ccc4c(c3)OCCO4)ccc2OCC(=O)Nc2ccc(Cl)c(Cl)c2)CC1` [NUCC-0202021], in that order: 1 to 2 µM and 1.4 µM. For the compound `CC(Oc1ccc(-c2cc(Cl)cc(Cl)c2)cc1CN1CCN(C)CC1)C(=O)NCc1ccc(Cl)cc1` (stereo not drawn) [NUCC-0202028], the IC50 was less than 1 µM under setting [1] and 0.86 µM under setting [2].

Take `CC(Oc1ccc(-c2ccc(Cl)c(Cl)c2)cc1CN1CCN(C)CC1)C(=O)NCc1ccc(Cl)cc1` (stereo not drawn) [NUCC-0202027]: the IC50 is less than 1 µM under setting [1] and 0.94 µM under setting [2]. In the case of `Cc1ccc(-c2ccc(OCC(=O)NCc3cccc(Cl)c3)c(CN3CCC(N(C)C)CC3)c2)cc1` [NUCC-0201610], the IC50 runs as follows: under setting [1], 2 to 5 µM; under setting [2], 5 µM. Regarding `CN1CCN(Cc2cc(-c3ccc(Cl)c(Cl)c3)ccc2OCC(=O)N2CCc3ccccc3C2)CC1` [NUCC-0201990], the IC50 was less than 1 µM under setting [1] and less than 0.74 µM under setting [2].

On to `CN1CCN(Cc2cc(-c3ccc(Cl)c(Cl)c3)ccc2OCC(=O)N2Cc3ccc(Cl)cc3C2)CC1` [NUCC-0201993], for which the IC50 by setting is: under setting [1], 1 to 2 µM; under setting [2], 1.9 µM. For the compound `CN1CCN(Cc2cc(-c3ccc(Cl)c(Cl)c3)ccc2OCC(=O)NCc2ccc([N+](=O)[O-])cc2)CC1` [NUCC-0201985], the IC50 is 2 to 5 µM under setting [1] and 2.5 µM under setting [2].

Take `CN1CCN(Cc2cc(-c3cccc(Cl)c3)ccc2OCC(=O)Nc2ccc(Cl)c(Cl)c2)CC1` [NUCC-0201998]: the IC50 runs as follows: under setting [1], less than 1 µM; under setting [2], less than 0.74 µM. Regarding `CN1CCN(Cc2cc(-c3ccc(Cl)c(Cl)c3)ccc2OCC(=O)NCCc2ccccc2)CC1` [NUCC-0201996], the IC50 was 1 to 2 µM under setting [1] and 1.1 µM under setting [2].

Regarding `Cc1cccc(-c2ccc(OCC(=O)Nc3cccc(S(C)(=O)=O)c3)c(CN3CC[C@H](N)C3)c2)c1` [NUCC-0201622], the IC50 runs as follows: under setting [1], 10 to 20 µM; under setting [2], 19 µM.

With `CN1CCN(Cc2cc(-c3ccc(Cl)cc3Cl)ccc2OCC(=O)NCc2ccc(Cl)c(Cl)c2)CC1` [NUCC-0201978], the IC50 is less than 1 µM under setting [1] and less than 0.74 µM under setting [2].

As to `CN1CCN(Cc2cc(-c3ccc(Cl)c(Cl)c3)ccc2OCC(=O)Nc2ccc(Cl)c(Cl)c2)CC1` [NUCC-0202002], the IC50 reads like this: under setting [1], less than 1 µM; under setting [2], less than 0.74 µM.

On to `Cc1cccc(-c2ccc(OCC(=O)Nc3ccc(Cl)c(Cl)c3)c(CN3CCN(C)CC3)c2)c1` [NUCC-0202000], for which the IC50 is, setting by setting: under setting [1], less than 1 µM; under setting [2], 0.76 µM. Take `CC(Oc1ccc(-c2ccc(F)cc2)cc1CN1CCN(C)CC1)C(=O)NCc1ccc(Cl)cc1` (stereo not drawn) [NUCC-0202032]: the half-maximal inhibitory concentration (IC50) is 2 to 5 µM under setting [1] and 3.2 µM under setting [2]. As to `Cc1ccc(-c2ccc(OCC(=O)N[C@H](C)c3ccccc3)c(CN3CCOCC3)c2)cc1` [NUCC-0201606], the IC50 is, setting by setting: under setting [1], 20 to 40 µM; under setting [2], 28 µM.

For the compound `Cc1ccc(-c2ccc(OCC(=O)NCc3ccc(Cl)cc3)c(CN3CCNCC3)c2)cc1` [NUCC-0201614], the IC50 is 5 to 10 µM under setting [1] and 7.2 µM under setting [2]. With `CN1CCN(Cc2cc(-c3ccc(Cl)cc3)ccc2OCC(=O)NCc2ccc(Cl)c(Cl)c2)CC1` [NUCC-0201977], the IC50 is, setting by setting: under setting [1], less than 1 µM; under setting [2], 0.87 µM. `CN1CCN(Cc2cc(-c3ccc(Cl)cc3)ccc2OCC(=O)NCc2ccc(Cl)cc2)CC1` [NUCC-0201972]: under setting [2], the IC50 was determined as 5 µM.

Turning to `Cc1cccc(-c2ccc(OCC(=O)NCc3cccnc3)c(CN3CC[C@H](N)C3)c2)c1` [NUCC-0201626], the IC50 under setting [2] was greater than 40 µM. As to `CN1CCN(Cc2cc(-c3ccc(Cl)c(Cl)c3)ccc2OCC(=O)N2CCc3cc(Cl)ccc32)CC1` [NUCC-0201981], the IC50 by setting is: under setting [1], less than 1 µM; under setting [2], less than 0.74 µM.

Source of the values: patent US20230391714A1, “INHIBITORS OF THE INTERACTION BETWEEN TRIP8B AND HCN CHANNELS AND USES THEREOF FOR TREATING NEUROLOGICAL DISEASES AND DISORDERS” (Northwestern University, priority 2022, published 2023).
